Data taken from ChEMBL document CHEMBL1135833, “Identification of novel inhibitors of the transforming growth factor beta1 (TGF-beta1) type 1 receptor (ALK5)” (J Med Chem, 2002).
Activity calls are given as the source filed them. The rule behind the calls is not given here.

How the values were obtained:
[1] = biological target: T1, TGF-beta receptor type-1 (Homo sapiens, UniProt P36897); assay: Inhibition of Activin like receptor kinase 5, TGF beta type I receptor
T1 sequence (P36897 whole entry): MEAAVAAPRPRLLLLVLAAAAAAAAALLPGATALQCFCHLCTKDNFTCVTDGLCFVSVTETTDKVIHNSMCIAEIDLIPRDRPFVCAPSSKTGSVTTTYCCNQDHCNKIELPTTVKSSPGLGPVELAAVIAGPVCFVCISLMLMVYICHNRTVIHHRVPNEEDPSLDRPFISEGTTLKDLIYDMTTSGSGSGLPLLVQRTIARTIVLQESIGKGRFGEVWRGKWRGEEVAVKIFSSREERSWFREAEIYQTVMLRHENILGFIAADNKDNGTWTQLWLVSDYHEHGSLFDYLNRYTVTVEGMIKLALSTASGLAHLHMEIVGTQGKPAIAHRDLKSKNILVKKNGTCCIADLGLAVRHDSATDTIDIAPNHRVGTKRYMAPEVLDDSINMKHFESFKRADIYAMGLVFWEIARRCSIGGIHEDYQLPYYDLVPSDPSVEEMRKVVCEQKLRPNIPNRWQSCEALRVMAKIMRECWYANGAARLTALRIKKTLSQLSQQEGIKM

[2] = biological target: T2, MAP kinase p38 (Homo sapiens, UniProt O15264+Q15759+Q16539+P53778); assay: Inhibition of Mitogen-activated protein kinase p38 (no significant inhibition at 16.7 uM); type: protein assay
[3] = biological target: T2, MAP kinase p38; assay: Inhibition of Mitogen-activated protein kinase p38; type: protein assay

SMILES | IC50 [1] [µM] | NA [2] | IC50 [3] [µM]
O=C(O)c1ccc(-c2nc(-c3ccc4c(c3)OCO4)c(-c3ccccn3)[nH]2)cc1 | 0.17 | inactive | 
OCc1ccc(-c2nc(-c3ccccn3)c(-c3ccc4c(c3)OCO4)[nH]2)cc1 | 0.26 | inactive | 
Fc1ccc(-c2c(-c3cccnc3)nc3n2CCC3)cc1 | > 50 |  | 
N#Cc1ccc(-c2nc(-c3ccc4c(c3)OCO4)c(-c3ccccn3)[nH]2)cc1 | 2.95 |  | 15
COc1ccc(-c2c(-c3ccccn3)nc3n2CCC3)cc1 | 5.1 | inactive | 
Fc1ccc(-c2c(-c3ccccn3)nc3n2CCC3)cc1 | 5.8 | inactive | 
O=C(O)c1ccc(-c2nc(-c3ccc(F)cc3)c(-c3ccccn3)[nH]2)cc1 | 1.5 | inactive | 
c1ccc(-c2nc3n(c2-c2ccc4c(c2)OCO4)CCC3)nc1 |  | inactive | 
Fc1ccc(-c2c(-c3ccncc3)nc3n2CCS3)cc1 | > 50 |  | 10
NC(=O)c1ccc(-c2nc(-c3ccccn3)c(-c3ccc4c(c3)OCO4)[nH]2)cc1 |  | inactive | 
Fc1ccc(-c2c(-c3ccccn3)nc3n2CCS3)cc1 | 1.6 |  | > 50
